Data: PubChem BioAssay AID250 (DTP/NCI, 2004)
Values joined by “and” are separate entries in the source; they are usually repeats but may differ in a detail not shown here. Equal values may be shown once. Inconclusive results and toxic doses are left out.

Tested on: BDF1 mice, L1210 leukemia sc, survival T/C
Experiment: NCI In Vivo Anticancer Drug Screen. Data for tumor model L1210 Leukemia (subcutaneous) in B6D2F1 (BDF1) mice
Conditions: higher = longer survival
How it was run: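 Expressed as T/C: measurement in compound-treated, tumor-bearing mice relative to vehicle-treated control mice, based on survival or tumor size.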

`CN(Cc1cnc2nc(N)nc(N)c2n1)c1ccc(C(=O)N[C@@H](CCC(=O)O)C(=O)O)cc1` was tested, and the T/C (endpoint: mean survival time, dose: 0.65 mg/kg/injection, schedule: Q01DX009 (sc), vehicle: other) was 166 % of control and 168 % of control, the T/C (endpoint: mean survival time, dose: 1.0 mg/kg/injection, schedule: Q01DX015 (ip), vehicle: other) was 158 % of control and 163 % of control and 171 % of control and the T/C (endpoint: mean survival time, dose: 1.08 mg/kg/injection, schedule: Q01DX009 (sc), vehicle: other) was 158 % of control. For the same compound, the T/C (endpoint: mean survival time, dose: 1.8 mg/kg/injection, schedule: Q01DX009 (sc), vehicle: other) was 171 % of control, the T/C (endpoint: mean survival time, dose: 2.0 mg/kg/injection, schedule: Q01DX009 (ip), vehicle: sodium bicarbonate) was 154 % of control and 166 % of control and the T/C (endpoint: mean survival time, dose: 4.0 mg/kg/injection, schedule: Q01DX009 (ip), vehicle: sodium bicarbonate) was 88 % of control. For the same compound, the T/C (endpoint: mean survival time, dose: 20.0 mg/kg/injection, schedule: Q04DX003 (ip), vehicle: sodium bicarbonate) was 158 % of control, the T/C (endpoint: mean survival time, dose: 45.0 mg/kg/injection, schedule: Q04DX004 (ip), vehicle: other) was 99 % of control and 101 % of control and the T/C (endpoint: mean survival time, dose: 60.0 mg/kg/injection, schedule: Q04DX004 (ip), vehicle: other) was 90 % of control and 105 % of control and 124 % of control. The T/C (endpoint: mean survival time, dose: 80.0 mg/kg/injection, schedule: Q04DX003 (ip), vehicle: sodium bicarbonate) was 91 % of control, the T/C (endpoint: mean survival time, dose: 200.0 mg/kg/injection, schedule: Q01DX001 (ip), vehicle: other) was 91 % of control and 111 % of control and 116 % of control and the T/C (endpoint: median survival time, dose: 0.01 mg/kg/injection, schedule: Q## X Z (sc), vehicle: other) was 100 % of control. The T/C (endpoint: median survival time, dose: 0.02 mg/kg/injection, schedule: Q## X Z (sc), vehicle: other) was 100 % of control, the T/C (endpoint: median survival time, dose: 0.03 mg/kg/injection, schedule: Q## X Z (sc), vehicle: other) was 105 % of control and the T/C (endpoint: median survival time, dose: 0.05 mg/kg/injection, schedule: Q#A X Z (sc), vehicle: other) was 105 % of control. The T/C (endpoint: median survival time, dose: 0.14 mg/kg/injection, schedule: Q#A X Z (sc), vehicle: other) was 122 % of control, the T/C (endpoint: median survival time, dose: 0.17 mg/kg/injection, schedule: Q01DX Z (iv), vehicle: other) was 112 % of control and the T/C (endpoint: median survival time, dose: 0.23 mg/kg/injection, schedule: Q01DX Z (ip), vehicle: other) was 100 % of control. For the same compound, the T/C (endpoint: median survival time, dose: 0.23 mg/kg/injection, schedule: Q01DX Z (sc), vehicle: sodium bicarbonate) was 109 % of control, the T/C (endpoint: median survival time, dose: 0.24 mg/kg/injection, schedule: Q01DX Z (sc), vehicle: other) was 104 % of control and 108 % of control and the T/C (endpoint: median survival time, dose: 0.3 mg/kg/injection, schedule: Q01DX Z (sc), vehicle: other) was 112 % of control. For the same compound, the T/C (endpoint: median survival time, dose: 0.39 mg/kg/injection, schedule: Q01DX006 (sc), vehicle: other) was 110 % of control, the T/C (endpoint: median survival time, dose: 0.39 mg/kg/injection, schedule: Q01DX008 (sc), vehicle: other) was 110 % of control and the T/C (endpoint: median survival time, dose: 0.39 mg/kg/injection, schedule: Q01DX009 (sc), vehicle: other) was 122 % of control. For the same compound, the T/C (endpoint: median survival time, dose: 0.39 mg/kg/injection, schedule: Q01DX Z (ip), vehicle: other) was 105 % of control, the T/C (endpoint: median survival time, dose: 0.47 mg/kg/injection, schedule: Q01DX Z (iv), vehicle: other) was 112 % of control and the T/C (endpoint: median survival time, dose: 0.47 mg/kg/injection, schedule: Q01DX Z (oral), vehicle: other) was 112 % of control. For the same compound, the T/C (endpoint: median survival time, dose: 0.65 mg/kg/injection, schedule: Q01DX008 (sc), vehicle: other) was 155 % of control and 166 % of control, the T/C (endpoint: median survival time, dose: 0.65 mg/kg/injection, schedule: Q01DX009 (sc), vehicle: other) was 169 % of control and the T/C (endpoint: median survival time, dose: 0.65 mg/kg/injection, schedule: Q01DX017 (sc), vehicle: sodium bicarbonate) was 166 % of control. For the same compound, the T/C (endpoint: median survival time, dose: 0.65 mg/kg/injection, schedule: Q01DX Z (oral), vehicle: other) was 90 % of control, the T/C (endpoint: median survival time, dose: 0.65 mg/kg/injection, schedule: Q02DX009 (sc), vehicle: other) was 111 % of control and the T/C (endpoint: median survival time, dose: 0.65 mg/kg/injection, schedule: Q02DX Z (sc), vehicle: other) was 111 % of control. For the same compound, the T/C (endpoint: median survival time, dose: 1.08 mg/kg/injection, schedule: Q01DX006 (sc), vehicle: other) was 150 % of control, the T/C (endpoint: median survival time, dose: 1.08 mg/kg/injection, schedule: Q01DX008 (sc), vehicle: other) was 160 % of control and 166 % of control and the T/C (endpoint: median survival time, dose: 1.08 mg/kg/injection, schedule: Q01DX009 (ip), vehicle: sodium bicarbonate) was 156 % of control and 166 % of control and 168 % of control. For the same compound, the T/C (endpoint: median survival time, dose: 1.08 mg/kg/injection, schedule: Q01DX017 (sc), vehicle: sodium bicarbonate) was 158 % of control, the T/C (endpoint: median survival time, dose: 1.08 mg/kg/injection, schedule: Q01DX Z (ip), vehicle: other) was 160 % of control and the T/C (endpoint: median survival time, dose: 1.08 mg/kg/injection, schedule: Q01DX Z (oral), vehicle: other) was 110 % of control. For the same compound, the T/C (endpoint: median survival time, dose: 1.08 mg/kg/injection, schedule: Q02DX009 (sc), vehicle: other) was 119 % of control, the T/C (endpoint: median survival time, dose: 1.08 mg/kg/injection, schedule: Q02DX Z (sc), vehicle: other) was 122 % of control and the T/C (endpoint: median survival time, dose: 1.08 mg/kg/injection, schedule: Q#A X Z (sc), vehicle: other) was 166 % of control. For the same compound, the T/C (endpoint: median survival time, dose: 1.5 mg/kg/injection, schedule: Q01DX009 (ip), vehicle: sodium bicarbonate) was 155 % of control and 167 % of control, the T/C (endpoint: median survival time, dose: 1.8 mg/kg/injection, schedule: Q01DX006 (sc), vehicle: other) was 155 % of control and the T/C (endpoint: median survival time, dose: 1.8 mg/kg/injection, schedule: Q01DX008 (sc), vehicle: other) was 160 % of control. The T/C (endpoint: median survival time, dose: 1.8 mg/kg/injection, schedule: Q01DX009 (ip), vehicle: sodium bicarbonate) was 166 % of control and 171 % of control, the T/C (endpoint: median survival time, dose: 2.89 mg/kg/injection, schedule: Q01DX Z (ip), vehicle: other) was 155 % of control and the T/C (endpoint: median survival time, dose: 3.0 mg/kg/injection, schedule: Q01DX006 (sc), vehicle: other) was 160 % of control and 166 % of control. For the same compound, the T/C (endpoint: median survival time, dose: 3.0 mg/kg/injection, schedule: Q01DX008 (sc), vehicle: other) was 160 % of control, the T/C (endpoint: median survival time, dose: 3.0 mg/kg/injection, schedule: Q01DX010 (sc), vehicle: other) was 161 % of control and the T/C (endpoint: median survival time, dose: 3.0 mg/kg/injection, schedule: Q01DX012 (ip), vehicle: sodium bicarbonate) was 122 % of control. The T/C (endpoint: median survival time, dose: 3.0 mg/kg/injection, schedule: Q01DX Z (oral), vehicle: other) was 160 % of control, the T/C (endpoint: median survival time, dose: 3.0 mg/kg/injection, schedule: Q02DX009 (sc), vehicle: other) was 164 % of control and the T/C (endpoint: median survival time, dose: 3.0 mg/kg/injection, schedule: Q02DX Z (sc), vehicle: other) was 166 % of control. For the same compound, the T/C (endpoint: median survival time, dose: 3.02 mg/kg/injection, schedule: Q01DX Z (sc), vehicle: other) was 166 % of control, the T/C (endpoint: median survival time, dose: 3.64 mg/kg/injection, schedule: Q01DX Z (sc), vehicle: other) was 166 % of control and the T/C (endpoint: median survival time, dose: 3.9 mg/kg/injection, schedule: Q01DX Z (sc), vehicle: other) was 150 % of control. For the same compound, the T/C (endpoint: median survival time, dose: 4.0 mg/kg/injection, schedule: Q01DX Z (sc), vehicle: water) was 155 % of control, the T/C (endpoint: median survival time, dose: 4.7 mg/kg/injection, schedule: Q01DX Z (sc), vehicle: other) was 166 % of control and the T/C (endpoint: median survival time, dose: 5.0 mg/kg/injection, schedule: Q01DX009 (ip), vehicle: sodium bicarbonate) was 166 % of control and 171 % of control. The T/C (endpoint: median survival time, dose: 5.0 mg/kg/injection, schedule: Q01DX025 (sc), vehicle: other) was 168 % of control, the T/C (endpoint: median survival time, dose: 5.0 mg/kg/injection, schedule: Q01DX Z (sc), vehicle: sodium bicarbonate) was 100 % of control and the T/C (endpoint: median survival time, dose: 6.0 mg/kg/injection, schedule: Q01DX009 (ip), vehicle: sodium bicarbonate) was 119 % of control. The T/C (endpoint: median survival time, dose: 6.0 mg/kg/injection, schedule: Q01DX Z (oral), vehicle: other) was 156 % of control, the T/C (endpoint: median survival time, dose: 14.0 mg/kg/injection, schedule: Q## X Z (sc), vehicle: other) was 109 % of control and 113 % of control and the T/C (endpoint: median survival time, dose: 62.5 mg/kg/injection, schedule: Q01DX001 (sc), vehicle: other) was 111 % of control. The T/C (endpoint: median survival time, dose: 65.0 mg/kg/injection, schedule: Q04DX005 (sc), vehicle: sodium bicarbonate) was 108 % of control, the T/C (endpoint: median survival time, dose: 65.0 mg/kg/injection, schedule: Q## X Z (sc), vehicle: other) was 152 % of control and the T/C (endpoint: median survival time, dose: 100.0 mg/kg/injection, schedule: Q01DX001 (sc), vehicle: sodium bicarbonate) was 150 % of control. The T/C (endpoint: median survival time, dose: 108.0 mg/kg/injection, schedule: Q## X Z (sc), vehicle: other) was 117 % of control and the T/C (endpoint: median survival time, dose: 125.0 mg/kg/injection, schedule: Q01DX001 (sc), vehicle: other) was 116 % of control.
